Activity calls are given as the source filed them. No cut-off for these calls is given here.
Assays:
[1] = system: Hordeum vulgare; test: Phytotoxicity against Hordeum vulgare cv. Fanfare (barley) at 60 g a.i./ha applied post-emergence measured after 12 days; format: functional
[2] = system: Hordeum vulgare; test: Phytotoxicity against Hordeum vulgare (barley) at 30 g a.i./ha applied post-emergence measured after 21 days in presence of 1% Merge adjuvant; format: organism-based; details: in vivo, other, 504 h
[3] = system: Triticum aestivum; test: Phytotoxicity against Triticum aestivum (wheat) at 30 g a.i./ha applied post-emergence measured after 21 days in presence of 1% Merge adjuvant; format: organism-based; details: in vivo, other, 504 h
[4] = Half life of hydrolysis at pH 7 at 50 degC; format: ADME; details: buffer
[5] = system: Lolium rigidum; test: Post-emergence herbicidal activity against Lolium rigidum at 30 g a.i./ha measured after 20 days; format: functional
[6] = system: Triticum aestivum; test: Phytotoxicity against Triticum aestivum cv. Remia (wheat) at 60 g a.i./ha applied post-emergence measured after 12 days in presence of cloquintocet-mexyl; format: functional
[7] = system: Avena fatua; test: Post-emergence herbicidal activity against Avena fatua at 30 g a.i./ha measured after 20 days; format: functional
[8] = system: Triticum aestivum; test: Phytotoxicity against Triticum aestivum cv. Remia (wheat) at 60 g a.i./ha applied post-emergence measured after 12 days; format: functional
[9] = system: Avena fatua; test: Post-emergence herbicidal activity against Avena fatua at 30 g a.i./ha measured after 21 days in presence of 1% Merge adjuvant; format: functional
[10] = system: Lolium rigidum; test: Post-emergence herbicidal activity against Lolium rigidum at 30 g a.i./ha measured after 20 days in presence of cloquintocet-mexyl; format: functional
[11] = system: Setaria faberi; test: Post-emergence herbicidal activity against Setaria faberi (Giant Foxtail) at 30 g a.i./ha measured after 21 days in presence of 1% Merge adjuvant; format: functional
[12] = system: Triticum aestivum; test: Phytotoxicity against Triticum aestivum cv. Arina (wheat) at 60 g a.i./ha applied post-emergence measured after 12 days in presence of cloquintocet-mexyl; format: functional
[13] = system: Avena fatua; test: Post-emergence herbicidal activity against Avena fatua at 30 g a.i./ha measured after 20 days in presence of cloquintocet-mexyl; format: functional
[14] = system: Triticum aestivum; test: Phytotoxicity against Triticum aestivum cv. Arina (wheat) at 60 g a.i./ha applied post-emergence measured after 12 days; format: functional
[15] = system: Alopecurus myosuroides; test: Post-emergence herbicidal activity against Alopecurus myosuroides at 30 g a.i./ha measured after 21 days in presence of 1% Merge adjuvant; format: functional
[16] = system: Lolium perenne; test: Post-emergence herbicidal activity against Lolium perenne (perennial ryegrass) at 30 g a.i./ha measured after 21 days in presence of 1% Merge adjuvant; format: functional
[17] = system: Hordeum vulgare; test: Phytotoxicity against Hordeum vulgare cv. Fanfare (barley) at 60 g a.i./ha applied post-emergence measured after 12 days in presence of cloquintocet-mexyl; format: functional
[18] = system: Lolium perenne; test: Post-emergence herbicidal activity against Lolium perenne (perennial ryegrass) at 30 g a.i./ha measured after 21 days in presence of 0.2% X-77 adjuvant; format: functional
[19] = system: Hordeum vulgare; test: Phytotoxicity against Hordeum vulgare (barley) at 30 g a.i./ha applied post-emergence measured after 21 days in presence of 0.2% X-77 adjuvant; format: organism-based; details: in vivo, other, 504 h
[20] = system: Triticum aestivum; test: Phytotoxicity against Triticum aestivum (wheat) at 125 g a.i./ha applied post-emergence measured after 21 days in presence of 0.2% X-77 adjuvant; format: organism-based; details: in vivo, other, 504 h
[21] = system: Triticum aestivum; test: Phytotoxicity against Triticum aestivum (wheat) at 30 g a.i./ha applied post-emergence measured after 21 days in presence of 0.2% X-77 adjuvant; format: organism-based; details: in vivo, other, 504 h
[22] = system: Avena fatua; test: Post-emergence herbicidal activity against Avena fatua at 125 g a.i./ha measured after 21 days in presence of 0.2% X-77 adjuvant; format: functional
[23] = system: Hordeum vulgare; test: Phytotoxicity against Hordeum vulgare (barley) at 125 g a.i./ha applied post-emergence measured after 21 days in presence of 0.2% X-77 adjuvant; format: organism-based; details: in vivo, other, 504 h
[24] = system: Avena fatua; test: Post-emergence herbicidal activity against Avena fatua at 30 g a.i./ha measured after 21 days in presence of 0.2% X-77 adjuvant; format: functional
[25] = system: Setaria faberi; test: Post-emergence herbicidal activity against Setaria faberi (Giant Foxtail) at 125 g a.i./ha measured after 21 days in presence of 0.2% X-77 adjuvant; format: functional
[26] = system: Alopecurus myosuroides; test: Post-emergence herbicidal activity against Alopecurus myosuroides at 30 g a.i./ha measured after 21 days in presence of 0.2% X-77 adjuvant; format: functional
[27] = system: Lolium perenne; test: Post-emergence herbicidal activity against Lolium perenne (perennial ryegrass) at 125 g a.i./ha measured after 21 days in presence of 0.2% X-77 adjuvant; format: functional
[28] = system: Setaria faberi; test: Post-emergence herbicidal activity against Setaria faberi (Giant Foxtail) at 30 g a.i./ha measured after 21 days in presence of 0.2% X-77 adjuvant; format: functional
[29] = system: Alopecurus myosuroides; test: Post-emergence herbicidal activity against Alopecurus myosuroides at 125 g a.i./ha measured after 21 days in presence of 0.2% X-77 adjuvant; format: functional
[30] = system: Triticum aestivum; test: Phytotoxicity against Triticum aestivum (wheat) at 500 g a.i./ha applied post-emergence measured after 15 days; format: organism-based; details: in vivo, other, 360 h
[31] = system: Avena fatua; test: Post-emergence herbicidal activity against Avena fatua at 500 g a.i./ha measured after 15 days; format: functional
[32] = system: Hordeum vulgare; test: Phytotoxicity against Hordeum vulgare (barley) at 500 g a.i./ha applied post-emergence measured after 15 days; format: organism-based; details: in vivo, other, 360 h
[33] = system: Hordeum vulgare; test: Phytotoxicity against Hordeum vulgare (barley) at 125 g a.i./ha applied post-emergence measured after 21 days; format: organism-based; details: in vivo, other, 504 h
[34] = system: Triticum aestivum; test: Phytotoxicity against Triticum aestivum (wheat) at 125 g a.i./ha applied post-emergence measured after 21 days; format: organism-based; details: in vivo, other, 504 h
[35] = system: Lolium perenne; test: Post-emergence herbicidal activity against Lolium perenne (perennial ryegrass) at 500 g a.i./ha measured after 15 days; format: functional
[36] = system: Avena fatua; test: Post-emergence herbicidal activity against Avena fatua at 125 g a.i./ha measured after 21 days; format: functional
[37] = system: Alopecurus myosuroides; test: Post-emergence herbicidal activity against Alopecurus myosuroides at 125 g a.i./ha measured after 21 days; format: functional
[38] = system: Lolium perenne; test: Post-emergence herbicidal activity against Lolium perenne (perennial ryegrass) at 125 g a.i./ha measured after 21 days; format: functional
[39] = system: Alopecurus myosuroides; test: Post-emergence herbicidal activity against Alopecurus myosuroides at 500 g a.i./ha measured after 15 days; format: functional
[40] = system: Avena fatua; test: Herbicidal activity against Avena fatua at > / = 250 g a.i./ha in presence of cloquintocet-mexyl; format: functional, organism-based
[41] = system: Setaria faberi; test: Post-emergence herbicidal activity against Setaria faberi (Giant Foxtail) at 2000 g a.i./ha after 21 days; format: functional
[42] = system: Lolium multiflorum; test: Herbicidal activity against Lolium multiflorum (Italian ryegrass) at 125 g a.i./ha in presence of cloquintocet-mexyl; format: functional, organism-based
[43] = system: Setaria faberi; test: Post-emergence herbicidal activity against Setaria faberi (Giant Foxtail) at 500 g a.i./ha after 21 days; format: functional
[44] = system: Avena fatua; test: Post-emergence herbicidal activity against Avena fatua at 500 g a.i./ha after 21 days; format: functional
[45] = system: Alopecurus myosuroides; test: Herbicidal activity against Alopecurus myosuroides at > / = 250 g a.i./ha in presence of cloquintocet-mexyl; format: functional, organism-based
[46] = system: Apera spica-venti; test: Herbicidal activity against Apera spica-venti at 125 g a.i./ha in presence of cloquintocet-mexyl; format: functional, organism-based
[47] = system: Lolium perenne; test: Post-emergence herbicidal activity against Lolium perenne (perennial ryegrass) at 500 g a.i./ha after 21 days; format: functional
[48] = system: Lolium perenne; test: Post-emergence herbicidal activity against Lolium perenne (perennial ryegrass) at 2000 g a.i./ha after 21 days; format: functional
[49] = system: Avena fatua; test: Post-emergence herbicidal activity against Avena fatua at 2000 g a.i./ha after 21 days; format: functional

| SMILES | Activity [1] | Activity [2] | Activity [3] | half-life [4] | Activity [5] | Activity [6] | Activity [7] | Activity [8] | Activity [9] | Activity [10] | Activity [11] | Activity [12] | Activity [13] | Activity [14] | Activity [15] | Activity [16] | Activity [17] | further results |
| --- | --- | --- | --- | --- | --- | --- | --- | --- | --- | --- | --- | --- | --- | --- | --- | --- | --- | --- |
| CCc1cc(C)cc(CC)c1-c1c(OC(=O)C(C)(C)C)n2n(c1=O)CCOCC2 [PINOXADEN] | 20% | 0% | 10% | 20.6 h | 90% | 0% | 90% | 30% | 100% | 95% | 90% | 0% | 90% | 30% | 100% | 100% | 0% |  |
| CCc1cc(C)cc(CC)c1C1C(=O)N2CCOCCN2C1=O [PINOXADEN DIONE] | 40% | 0% | 10% |  | 90% | 0% | 90% | 50% | 100% | 90% | 90% | 0% | 90% | 20% | 100% | 90% | 0% |  |
| CCc1cccc(CC)c1C1C(=O)N2CCCCN2C1=O |  | 80% | 80% |  |  |  |  |  | 100% |  | 90% |  |  |  | 100% | 80% |  | Activity [18]: 50%; Activity [19]: 10%; Activity [20]: 0%; Activity [21]: 40%; Activity [22]: 80%; Activity [23]: 0%; Activity [24]: 90%; Activity [25]: 40%; Activity [26]: 80%; Activity [27]: 40%; Activity [28]: 40%; Activity [29]: 60% |
| Cc1cc(C)c(C2C(=O)N3CCCCN3C2=O)c(C)c1 [CGA-271312] |  |  |  |  |  |  |  |  |  |  |  |  |  |  |  |  |  | Activity [30]: 60%; Activity [31]: 90%; Activity [32]: 90%; Activity [33]: 40%; Activity [34]: 0%; Activity [35]: 90%; Activity [36]: 50%; Activity [37]: 40%; Activity [38]: 40%; Activity [39]: 60% |
| CCCCCCCS(=O)(=O)Oc1c(-c2c(CC)cc(C)cc2CC)c(=O)n2n1CCOCC2 |  | 0% | 20% | 3 h |  |  |  |  | 100% |  | 90% |  |  |  | 80% | 100% |  |  |
| Cc1cc(C)c(-c2c(OC(=O)C(C)(C)C)n3n(c2=O)CCOCC3)c(C)c1 |  |  |  |  |  |  |  |  |  |  |  |  |  |  |  |  |  | Activity [40]: Active; Activity [41]: 100%; Activity [42]: Active; Activity [43]: 90%; Activity [44]: 90%; Activity [45]: Active; Activity [46]: Active; Activity [47]: 90%; Activity [48]: 90%; Activity [49]: 100% |
